Data: US20030054185A1, “Biocidal controlled-release formulations” (CREAVIS GESELLSCHAFT F. TECHN.U.INNOVATION MBH, priority 2001, published 2003)

Tests used:
Pseudomonas aeruginosa = test: test microbial suspension shaken with aqueous extract, number of microbes determined; format: cell-based; conditions: contact time of 4 hours, starting number 10^7, 2 mL of 24 h water extract (37° C.) in 20 mL suspension (solvent control: 0.5 mL neat)
Experimental: The supernatant liquor is then filtered through a 0.2 micrometer pore filter. 2 mL of this solution are shaken with 20 mL of a test microbial suspension of Pseudomonas aeruginosa. […] The solvent is removed at 35° C. over a period of 48 hours in a drying cabinet, so that a polymer film remains on the base of the glass beaker. This film is extracted for 24 hours with 200 mL of water heated to 37° C. 2 mL of this solution are shaken with 20 mL of a test microbial suspension of Pseudomonas aeruginosa. […] Over a period of 14 days, the film is extracted as described above, each time for 24 hours, with 200 mL of water heated to 37° C., and the water is then subjected to microbiological testing. All of the determinations show a fall of from 4 to 5 logarithmic levels in the number of microbes. […] The solvent is removed over a period of 48 hours at 35° C. in a drying cabinet, so that a polymer film remains on the base of the glass beaker. The film is then dried for 24 hours at 5 mbar at 50° C. in a vacuum drying cabinet. This film is extracted for 24 hours with 200 mL of water heated to 37° C. 2 mL of this solution are shaken with 20 mL of a test microbial suspension of Pseudomonas aeruginosa. […] The solvent is removed over a period of 48 hours at 35° C. in a drying cabinet so that a polymer film remains on the base of the glass beaker. […]

Staphylococcus aureus = test: as above; format: cell-based; conditions: contact time of 4 hours, starting number 10^7, 2 mL of 24 h water extract (37° C.) in 20 mL suspension (solvent control: 0.5 mL neat)
Experimental: 2 mL of this solution are shaken with 20 mL of a test microbial suspension of Staphylococcus aureus. After a contact time of 4 hours, 1 mL of the test microbial suspension is removed, and the number of microbes in the test mixture is determined.
This film is extracted for 24 hours with 200 mL of water heated to 37° C. 2 mL of this solution are shaken with 20 mL of a test microbial suspension of Staphylococcus aureus. After a contact time of 4 hours, 1 mL of the test microbial suspension is removed, and the number of microbes in the test mixture is determined. […] Over a period of 14 days, the film is extracted as described above, each time for 24 hours, with 200 mL of water heated to 37° C., and the water is then subjected to microbiological testing.
This film is extracted for 24 hours with 200 mL of water heated to 37° C. 2 mL of this solution are shaken with 20 mL of a test microbial suspension of Staphylococcus aureus. After a contact time of 4 hours, 1 mL of the test microbial suspension is removed, and the number of microbes in the test mixture is determined.

Compound | number of microbes in the test mixture (Pseudomonas aeruginosa) | number of microbes in the test mixture (Staphylococcus aureus)
C1CCCCC1 [cyclohexane] | 10^7 microbes per mL | 
CCO [ethanol] |  | 10^7 microbes per mL
